OC[C@@H](O)[C@@H](O)[C@H](O)[C@@H](O)CO
solubility (mole fraction)
Settings | in THF | in acetone | in acetonitrile | in ethanol | in ethyl acetate | in methanol | in n-butanol | in n-propanol
278.15 K | 0.000363 | 0.000225 | 0.000109 | 0.000598 | 0.000239 | 0.00205 | 0.000449 | 0.000553
283.15 K | 0.000406 | 0.000255 | 0.000129 | 0.000753 | 0.000259 | 0.00275 | 0.000533 | 0.000677
288.15 K | 0.000446 | 0.000287 | 0.000153 | 0.000944 | 0.000289 | 0.00351 | 0.000627 | 0.000838
293.15 K | 0.000489 | 0.000328 | 0.000178 | 0.00117 | 0.000317 | 0.00461 | 0.000748 | 0.00102
298.15 K | 0.000544 | 0.000382 | 0.000208 | 0.00146 | 0.000354 | 0.00585 | 0.000895 | 0.00124
303.15 K | 0.000597 | 0.000436 | 0.000249 | 0.00181 | 0.000392 | 0.00739 | 0.00106 | 0.00152
